Among the data in BindingDB's records for doi:10.1021/jm00066a012 (Upjohn Laboratories, 1993) are IC50 values, retold here.

The structures appear in SMILES notation.

A short description of the assay: In vitro inhibitory activity against ADP-induced human platelet aggregation.
As for `O=c1cc(N2CCOCC2)oc2cc(OCc3cccc4ccccc34)ccc12` [2-Morpholin-4-yl-7-(naphthalen-1-ylmethoxy)-chromen-4-one], the IC50 (in general, the concentration at which inhibition is half-maximal) came out at 41 µM.

In the case of `O=c1cc(N2CCOCC2)oc2cc(OCc3ccccn3)ccc12` [2-Morpholin-4-yl-7-(pyridin-2-ylmethoxy)-chromen-4-one], inhibition was half-maximal at 53 µM (IC50). To `Cc1c(N2CCOCC2)oc2c(C)c(OCc3cccc4ccccc34)ccc2c1=O` [3,8-Dimethyl-2-morpholin-4-yl-7-(naphthalen-1-ylmethoxy)-chromen-4-one] belongs over 75 µM; to `Cc1cc2c(=O)cc(N3CCOCC3)oc2c(C)c1OCCN1CCN(C)CC1` [6,8-Dimethyl-7-[2-(4-methyl-piperazin-1-yl)-ethoxy]-2-morpholin-4-yl-chromen-4-one], 1.4 µM. In turn, `Cc1c(OCc2nnnn2C2CCCCC2)ccc2c(=O)cc(N3CCOCC3)oc12` [7-(1-Cyclohexyl-1H-tetrazol-5-ylmethoxy)-8-methyl-2-morpholin-4-yl-chromen-4-one] came in with an IC50 of 12 µM. `Cc1c(OCc2nnnn2C(C)(C)C)ccc2c(=O)cc(N3CCOCC3)oc12` [7-(1-tert-Butyl-1H-tetrazol-5-ylmethoxy)-8-methyl-2-morpholin-4-yl-chromen-4-one] displayed an IC50 of 2 µM. As to `Cc1c(OCCN2CCCCCC2)ccc2c(=O)cc(N3CCOCC3)oc12` [7-(2-Azepan-1-yl-ethoxy)-8-methyl-2-morpholin-4-yl-chromen-4-one], inhibition was half-maximal at 3 µM (IC50). With `CCN(CC)CCOc1ccc2c(=O)cc(N3CCOCC3)oc2c1C` [7-(2-Diethylamino-ethoxy)-8-methyl-2-morpholin-4-yl-chromen-4-one], half-maximal inhibition (IC50) required 2.6 µM. As to `COc1ccccc1COc1ccc2c(=O)cc(N3CCOCC3)oc2c1C` [7-(2-Methoxy-benzyloxy)-8-methyl-2-morpholin-4-yl-chromen-4-one], the IC50 worked out at 44 µM. `COCCOc1ccc2c(=O)cc(N3CCOCC3)oc2c1C` [7-(2-Methoxy-ethoxy)-8-methyl-2-morpholin-4-yl-chromen-4-one] showed an IC50 of 7 µM. To `COc1ccc(COc2ccc3c(=O)cc(N4CCOCC4)oc3c2C)cc1` [7-(4-Methoxy-benzyloxy)-8-methyl-2-morpholin-4-yl-chromen-4-one] belongs 47 µM. To `C=CCOc1ccc2c(=O)cc(N3CCOCC3)oc2c1C` [7-Allyloxy-8-methyl-2-morpholin-4-yl-chromen-4-one] belongs 58 µM; to `Cc1c(N2CCOCC2)oc2c(C)c(OCc3ccccc3)ccc2c1=O` [7-Benzyloxy-3,8-dimethyl-2-morpholin-4-yl-chromen-4-one], over 75 µM. The molecule `Cc1c(OCc2ccccc2)ccc2c(=O)cc(N3CCOCC3)oc12` [7-Benzyloxy-8-methyl-2-morpholin-4-yl-chromen-4-one] displayed an IC50 of 40 µM. To `COc1ccc2c(=O)cc(N3CCOCC3)oc2c1C` [7-Methoxy-8-methyl-2-morpholin-4-yl-chromen-4-one] belongs 41 µM; to `Cc1c(OCCN2CCN(Cc3ccccc3)CC2)ccc2c(=O)cc(N3CCOCC3)oc12` [7-[2-(4-Benzyl-piperazin-1-yl)-ethoxy]-8-methyl-2-morpholin-4-yl-chromen-4-one], 11 µM; to `CCCc1c(OCCN2CCN(C)CC2)ccc2c(=O)cc(N3CCOCC3)oc12` [7-[2-(4-Methyl-piperazin-1-yl)-ethoxy]-2-morpholin-4-yl-8-propyl-chromen-4-one], 69 µM.

In turn, `C=Cc1c(OCCN2CCN(C)CC2)ccc2c(=O)cc(N3CCOCC3)oc12` [7-[2-(4-Methyl-piperazin-1-yl)-ethoxy]-2-morpholin-4-yl-8-vinyl-chromen-4-one] showed an IC50 of 3 µM. With `CN1CCN(CCOc2ccc3c(=O)cc(N4CCOCC4)oc3c2)CC1` [7-[2-(4-Methyl-piperazin-1-yl)-ethoxy]-2-morpholin-4-yl-chromen-4-one] the figure was 35 µM; with `Cc1c(OCCN2CCN(C)CC2)ccc2c(=O)cc(N3CCOCC3)oc12` [7-[2-(4-methylpiperazin-1-yl)ethoxy]-8-methyl-2-morpholinyl chromone], 0.85 µM; with `CCN(CCOc1ccc2c(=O)cc(N3CCOCC3)oc2c1C)c1ccccc1` [7-[2-(Ethyl-phenyl-amino)-ethoxy]-8-methyl-2-morpholin-4-yl-chromen-4-one], 43 µM. Regarding `Cc1c(OCCN2CCN(CCO)CC2)ccc2c(=O)cc(N3CCOCC3)oc12` [7-{2-[4-(2-Hydroxy-ethyl)-piperazin-1-yl]-ethoxy}-8-methyl-2-morpholin-4-yl-chromen-4-one], the IC50 turned out to be 12 µM. To `CCN(CCO)CCOc1ccc2c(=O)cc(N3CCOCC3)oc2c1C` [7-{2-[Ethyl-(2-hydroxy-ethyl)-amino]-ethoxy}-8-methyl-2-morpholin-4-yl-chromen-4-one] belongs 14 µM. To `C=CCc1c(OCCN2CCN(C)CC2)ccc2c(=O)cc(N3CCOCC3)oc12` [8-Allyl-7-[2-(4-methyl-piperazin-1-yl)-ethoxy]-2-morpholin-4-yl-chromen-4-one] belongs 8.9 µM. With `CCc1c(OCCN2CCN(C)CC2)ccc2c(=O)cc(N3CCOCC3)oc12` [8-Ethyl-7-[2-(4-methyl-piperazin-1-yl)-ethoxy]-2-morpholin-4-yl-chromen-4-one] the figure was 4 µM; with `Cc1c(OCc2nnnn2-c2ccccc2)ccc2c(=O)cc(N3CCOCC3)oc12` [8-Methyl-2-morpholin-4-yl-7-(1-phenyl-1H-tetrazol-5-ylmethoxy)-chromen-4-one], 8 µM; with `Cc1c(OCC(=O)c2ccccc2)ccc2c(=O)cc(N3CCOCC3)oc12` [8-Methyl-2-morpholin-4-yl-7-(2-oxo-2-phenyl-ethoxy)-chromen-4-one], 43 µM. Take `CC(=O)COc1ccc2c(=O)cc(N3CCOCC3)oc2c1C` [8-Methyl-2-morpholin-4-yl-7-(2-oxo-propoxy)-chromen-4-one]: the IC50 came to 12 µM.

With `Cc1c(OCCN2CCNCC2)ccc2c(=O)cc(N3CCOCC3)oc12` [8-Methyl-2-morpholin-4-yl-7-(2-piperazin-1-yl-ethoxy)-chromen-4-one], the IC50 was 4 µM. `Cc1c(OCCN2CCCCC2)ccc2c(=O)cc(N3CCOCC3)oc12` [8-Methyl-2-morpholin-4-yl-7-(2-piperidin-1-yl-ethoxy)-chromen-4-one] had an IC50 of 5 µM. Take `Cc1c(OCCN2CCCC2)ccc2c(=O)cc(N3CCOCC3)oc12` [8-Methyl-2-morpholin-4-yl-7-(2-pyrrolidin-1-yl-ethoxy)-chromen-4-one]: the IC50 came to 4 µM.

In turn, `Cc1c(OCCN2CCSCC2)ccc2c(=O)cc(N3CCOCC3)oc12` [8-Methyl-2-morpholin-4-yl-7-(2-thiomorpholin-4-yl-ethoxy)-chromen-4-one] showed an IC50 of 4.3 µM. For the molecule `Cc1c(OCc2cccc3ccccc23)ccc2c(=O)cc(N3CCOCC3)oc12` [8-Methyl-2-morpholin-4-yl-7-(naphthalen-1-ylmethoxy)-chromen-4-one], the IC50 was found to be 13 µM. The molecule `Cc1c(OCc2ccc3ccccc3c2)ccc2c(=O)cc(N3CCOCC3)oc12` [8-Methyl-2-morpholin-4-yl-7-(naphthalen-2-ylmethoxy)-chromen-4-one] registered an IC50 of 65 µM. In the case of `Cc1c(OCc2ccccn2)ccc2c(=O)cc(N3CCOCC3)oc12` [8-Methyl-2-morpholin-4-yl-7-(pyridin-2-ylmethoxy)-chromen-4-one], half-maximal inhibition (IC50) was put at 19 µM. `Cc1c(OCc2cccnc2)ccc2c(=O)cc(N3CCOCC3)oc12` [8-Methyl-2-morpholin-4-yl-7-(pyridin-3-ylmethoxy)-chromen-4-one] had an IC50 of 4 µM. To `Cc1c(OCCN2CCN(c3ccccc3)CC2)ccc2c(=O)cc(N3CCOCC3)oc12` [8-Methyl-2-morpholin-4-yl-7-[2-(4-phenyl-piperazin-1-yl)-ethoxy]-chromen-4-one] belongs over 75 µM; to `Cc1c(OCc2nnnn2C)ccc2c(=O)cc(N3CCOCC3)oc12` [8-Methyl-7-(1-methyl-1H-tetrazol-5-ylmethoxy)-2-morpholin-4-yl-chromen-4-one], 2.8 µM; to `CSCCOc1ccc2c(=O)cc(N3CCOCC3)oc2c1C` [8-Methyl-7-(2-methylsulfanyl-ethoxy)-2-morpholin-4-yl-chromen-4-one], 14 µM. In turn, `COC(=O)COc1ccc2c(=O)c(C)c(N3CCOCC3)oc2c1C` [(3,8-Dimethyl-2-morpholin-4-yl-4-oxo-4H-chromen-7-yloxy)-acetic acid methyl ester] yielded an IC50 of 59 µM.

On to `COC(=O)COc1ccc2c(=O)cc(N3CCOCC3)oc2c1C` [(8-Methyl-2-morpholin-4-yl-4-oxo-4H-chromen-7-yloxy)-acetic acid methyl ester], for which the IC50 is 9 µM.
